Consider one molecule from publication PMC4979471 (Cell Death Discovery, 2015).

Where two headings read alike, the source gives them in different places.

What all share (assay): Kinase selectivity, P33-radiolabeled assay
What all share (type): biochemical

In one test the target is T1, ALK5/TGFBR1 (Homo sapiens, UniProt P36897).
T1 construct: purchased Reaction Biology Corp
T1 sequence (P36897 34-503): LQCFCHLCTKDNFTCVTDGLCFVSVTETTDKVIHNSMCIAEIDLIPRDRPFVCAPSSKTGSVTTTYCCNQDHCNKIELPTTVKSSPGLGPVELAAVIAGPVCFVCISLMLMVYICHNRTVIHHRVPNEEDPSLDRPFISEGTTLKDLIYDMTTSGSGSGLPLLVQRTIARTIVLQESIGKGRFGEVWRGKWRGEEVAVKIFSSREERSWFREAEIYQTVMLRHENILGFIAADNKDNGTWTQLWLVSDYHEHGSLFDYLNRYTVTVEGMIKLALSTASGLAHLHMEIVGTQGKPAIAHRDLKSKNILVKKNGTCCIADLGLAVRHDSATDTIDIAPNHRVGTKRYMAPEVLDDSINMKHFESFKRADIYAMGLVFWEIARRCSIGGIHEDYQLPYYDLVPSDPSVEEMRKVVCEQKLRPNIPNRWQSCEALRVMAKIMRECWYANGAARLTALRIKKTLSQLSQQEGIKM
Particulars: 10 μM ATP. A digest of the protocol:
(§1)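 Each enzyme was exposed to 10 μM compound, with duplicate measurements, in reactions containing 10 μM ATP. Numbers are remaining activity as a percent of the vehicle (DMSO) signal.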

Another test has as its target T2, CAMK1d (Homo sapiens, UniProt Q8IU85).
T2 construct: purchased Reaction Biology Corp
Particulars: 10 μM ATP. A digest of the protocol: as §1

A further test concerns the target T3, DYRK1B (Homo sapiens, UniProt Q9Y463).
T3 construct: purchased Reaction Biology Corp
Particulars: 10 μM ATP. The method, boiled down: as §1

A further test addresses T4, IRAK4 (Homo sapiens, UniProt Q9NWZ3).
T4 construct: purchased Reaction Biology Corp
T4 sequence (Q9NWZ3 1-460): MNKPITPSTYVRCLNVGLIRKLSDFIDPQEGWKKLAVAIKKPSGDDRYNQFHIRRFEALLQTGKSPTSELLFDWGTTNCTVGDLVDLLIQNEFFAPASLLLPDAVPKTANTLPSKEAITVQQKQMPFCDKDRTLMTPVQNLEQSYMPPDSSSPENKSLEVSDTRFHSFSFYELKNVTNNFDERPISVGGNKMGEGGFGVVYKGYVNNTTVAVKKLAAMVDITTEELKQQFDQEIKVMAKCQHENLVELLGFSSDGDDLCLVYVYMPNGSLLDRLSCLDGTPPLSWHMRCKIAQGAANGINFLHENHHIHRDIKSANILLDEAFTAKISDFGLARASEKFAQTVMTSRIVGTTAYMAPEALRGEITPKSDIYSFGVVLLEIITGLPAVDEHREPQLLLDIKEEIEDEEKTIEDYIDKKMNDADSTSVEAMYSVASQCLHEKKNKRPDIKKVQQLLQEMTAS
The settings on record: 10 μM ATP. The method, boiled down: as §1

The target of another test is T5, PKCmu/PRKD1 (Homo sapiens, UniProt Q15139).
T5 construct: purchased Reaction Biology Corp
T5 sequence (Q15139 1-912): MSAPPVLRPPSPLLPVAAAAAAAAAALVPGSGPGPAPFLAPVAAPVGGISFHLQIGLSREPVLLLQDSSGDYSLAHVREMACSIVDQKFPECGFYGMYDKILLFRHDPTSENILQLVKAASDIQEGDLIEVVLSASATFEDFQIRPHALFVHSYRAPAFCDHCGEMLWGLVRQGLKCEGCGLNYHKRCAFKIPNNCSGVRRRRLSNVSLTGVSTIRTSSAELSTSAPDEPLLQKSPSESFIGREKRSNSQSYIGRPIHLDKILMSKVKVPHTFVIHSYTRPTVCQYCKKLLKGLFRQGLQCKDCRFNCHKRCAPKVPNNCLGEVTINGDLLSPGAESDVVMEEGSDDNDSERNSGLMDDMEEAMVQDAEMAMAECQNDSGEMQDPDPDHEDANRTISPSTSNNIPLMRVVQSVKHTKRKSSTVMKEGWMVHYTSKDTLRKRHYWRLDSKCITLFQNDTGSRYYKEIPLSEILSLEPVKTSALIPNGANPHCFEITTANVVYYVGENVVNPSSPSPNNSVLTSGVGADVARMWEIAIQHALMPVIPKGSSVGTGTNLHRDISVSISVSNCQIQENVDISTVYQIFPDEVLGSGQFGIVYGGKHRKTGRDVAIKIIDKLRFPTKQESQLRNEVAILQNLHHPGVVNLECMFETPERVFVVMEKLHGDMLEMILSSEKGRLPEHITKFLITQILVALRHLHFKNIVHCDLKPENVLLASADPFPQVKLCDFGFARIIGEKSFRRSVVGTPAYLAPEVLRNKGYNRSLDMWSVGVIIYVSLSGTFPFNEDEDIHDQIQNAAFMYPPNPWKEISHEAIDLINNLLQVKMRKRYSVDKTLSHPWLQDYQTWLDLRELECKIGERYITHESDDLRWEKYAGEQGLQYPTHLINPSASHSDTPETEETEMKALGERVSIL
A digest of the protocol: as §1

[1] abbreviates: read-out: % Enzyme Activity (relative to DMSO controls) AVG.
Where [2] appears, read: read-out: % Enzyme Activity (relative to DMSO controls) Data 1.
Setting [3] is: read-out: % Enzyme Activity (relative to DMSO controls) Data 2.

T3 sequence (Q9Y463 whole entry): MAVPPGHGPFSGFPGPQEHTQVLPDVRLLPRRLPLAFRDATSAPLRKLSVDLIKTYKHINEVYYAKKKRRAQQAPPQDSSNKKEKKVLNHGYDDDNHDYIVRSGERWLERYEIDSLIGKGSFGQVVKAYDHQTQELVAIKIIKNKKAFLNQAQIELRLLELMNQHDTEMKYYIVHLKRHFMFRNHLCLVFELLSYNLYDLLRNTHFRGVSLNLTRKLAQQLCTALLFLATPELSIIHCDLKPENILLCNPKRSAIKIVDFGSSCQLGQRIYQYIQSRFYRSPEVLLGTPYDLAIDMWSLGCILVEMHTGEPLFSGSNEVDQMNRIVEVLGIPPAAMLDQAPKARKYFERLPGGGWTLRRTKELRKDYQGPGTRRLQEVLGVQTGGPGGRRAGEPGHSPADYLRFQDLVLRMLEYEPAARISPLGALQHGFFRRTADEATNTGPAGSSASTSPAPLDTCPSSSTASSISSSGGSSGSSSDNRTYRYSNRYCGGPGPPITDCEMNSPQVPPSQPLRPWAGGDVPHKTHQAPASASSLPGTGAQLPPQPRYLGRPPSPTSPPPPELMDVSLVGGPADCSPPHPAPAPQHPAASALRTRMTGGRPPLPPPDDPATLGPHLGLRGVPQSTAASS
T2 sequence (Q8IU85 whole entry): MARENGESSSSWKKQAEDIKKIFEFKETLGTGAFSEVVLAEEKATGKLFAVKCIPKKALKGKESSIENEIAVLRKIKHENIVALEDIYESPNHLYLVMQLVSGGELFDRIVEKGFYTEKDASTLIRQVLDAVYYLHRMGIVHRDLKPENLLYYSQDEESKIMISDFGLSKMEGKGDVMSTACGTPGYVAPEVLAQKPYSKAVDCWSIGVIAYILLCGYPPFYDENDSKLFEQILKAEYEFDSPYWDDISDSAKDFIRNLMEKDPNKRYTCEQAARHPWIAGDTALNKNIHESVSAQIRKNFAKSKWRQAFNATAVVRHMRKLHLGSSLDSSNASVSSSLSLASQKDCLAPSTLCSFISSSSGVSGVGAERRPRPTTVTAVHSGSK

Regarding `CC(C)(C)C(=O)N1N=CC[C@H]1c1ccccc1` [GSK′963], the remaining activity at 10 µM on ALK5/TGFBR1 (setting [1]) was 94.1%; at ALK5/TGFBR1 (setting [2]), 97%; at ALK5/TGFBR1 (setting [3]), 91.2%; on CAMK1d (setting [1]) it was 90.2%; at CAMK1d (setting [2]) it was 88.6%; on CAMK1d (setting [3]), 91.8%. For the same molecule, the remaining activity at 10 µM came out at 102% at DYRK1B (setting [1]); 103% at DYRK1B (setting [2]); 101% at DYRK1B (setting [3]); 115% at IRAK4 (setting [1]); 116% at IRAK4 (setting [2]); 114% on IRAK4 (setting [3]). Further, the remaining activity at 10 µM at PKCmu/PRKD1 (10 uM, 10 μM ATP, read-out: % Enzyme Activity (relative to DMSO controls) Data 1) was 99.9%; on PKCmu/PRKD1 (10 uM, 10 μM ATP, read-out: % Enzyme Activity (relative to DMSO controls) Data 2) it was 103%; on PKCmu/PRKD1 (setting [1]), 101%.
